Laboratory results from patent US20250296960A1, “PEPTIDE COMPOSITIONS AND METHODS OF USE THEREOF” (priority 2022, published 2025).
“And” between values parts separate entries of the source, which are not always exact repeats. Identical values can stand only once. Square brackets hold non-standard residues; d marks the D form. Peptide text beside a SMILES is read from it. * marks the point of attachment. X1 = O=C(O)CCCCCCCCCCCCCCCCC(=O)N[C@@H](CCC(=O)NCCOCCOCC(=O)NCCOCCOCC(=O)NCCN1C(=O)CC(*)C1=O)C(=O)O; Aib = CC(C)(N)C(=O)O

Columns and labels:
[1] = biological target: T1, human GCGR (Homo sapiens, UniProt P47871); test: cAMP assay (HitHunter cAMP) in GCGR-expressing CHO-K1 cells (GCGR+ cells); format: cell-based; settings: for Activity relative to STD peptide (%), Glucagon: Table 13, EC50 of STD peptide over EC50 of peptide; for Activity relative to GLP-1 (%), Glucagon: Table 14; for Activity relative to GLP-1 (%), Glucagon / Activity relative to GLP-1 (%), GCGR: normalised to activity at GLP-1R; for Activity relative to STD peptide (%), GCGR: Table 18; for Activity relative to GLP-1 (%), GCGR: Table 19; for Relative % to native ligand, GCGR: Table 24, ratio of EC50 of native ligand over peptide; for Ratio vs. GLP-1R, GCGR: Table 25; for Relative % to non-lipidated peptide, GCGR: Table 26
T1 construct: host or cells: CHO-K1
Method: (§1) The cells were seeded in a 96-well plate at 7×10^3 cells/well using cell plate reagent and incubated the cells overnight at 37° C. and 5% CO2. To perform the cAMP detection assay, cell plating reagent were replaced with the cAMP Assay buffer. Each of the wells was then treated with the diluted peptide and incubated for 30 minutes under conditions of a temperature of 37° C. in a CO2 incubator.
(§2) After the incubation, cAMP Antibody reagent and Working cAMP detection solution to all wells. Incubate the plate for 1 hour at Room temperature in the dark. Then, cAMP Solution A was added and incubated for 3 hours at room temperature in the dark. Subsequently, the luminescence was measured using the microplate reader device.

[2] = Body weight loss in normal C57BL/6 mice, subcutaneous dosing; format: in vivo; settings: for Weight loss (%): normal mice, after 48 or 72 hours
Method: To confirm the therapeutic effect of the peptide in vivo, polypeptides were administered to mice to measure changes in body weight. […] The peptides were delivered at 0.02% polysorbate 80 (PS80) in PBS and dosing volume was 10 mL/kg. Body weight was monitored 6 h, QD.
To confirm the therapeutic effect of the peptide in obesity, diabetes, or NASH, polypeptides were administered to mice to measure changes in food intake, blood glucose and body weight. […] In addition, a NASH animal model was prepared by feeding a high fat, high fructose, high cholesterol diet to normal C57BL/6 mice (approximately 6 weeks old) for approximately 21 weeks, and increasing the body weights of the mice to approximately 50 g on average. Thereafter, polypeptides were administered by subcutaneous injection at dose of 20 nmol/kg once every other day for 2 weeks. Body weight and food intake were measured once every other day given points of time. After 2 weeks of treatment period, mice were sacrificed, then liver weight, hepatic triglyceride, and NASH related biomarkers were measured.
DD01 administered at 40 nmol/kg, s.c. Q2D as positive control was delivered at 0.02% PS80 in PBS and dosing volume was 10 mL/kg. Body weight was monitored QD for 4 days.
The peptides were delivered at 0.02% PS80 in PBS and dosing volume was 10 mL/kg. Food intake, blood glucose, and body weight changes were monitored QD.

[3] = biological target: T2, human GIPR (Homo sapiens, UniProt P48546); test: cAMP assay (HitHunter cAMP) in GIPR-expressing CHO-K1 cells (GIPR+ cells); format: cell-based; settings: for Activity relative to STD peptide (%), GIP: Table 13, EC50 of STD peptide over EC50 of peptide; for Activity relative to GLP-1 (%), GIP: Table 14; for Activity relative to GLP-1 (%), GIP / Activity relative to GLP-1 (%), GIPR: normalised to activity at GLP-1R; for Activity relative to STD peptide (%), GIPR: Table 18; for Activity relative to GLP-1 (%), GIPR: Table 19; for Relative % to native ligand, GIPR: Table 24, ratio of EC50 of native ligand over peptide; for Ratio vs. GLP-1R, GIPR: Table 25; for Relative % to non-lipidated peptide, GIPR: Table 26
T2 construct: host or cells: CHO-K1
T2 sequence (P48546 22-466): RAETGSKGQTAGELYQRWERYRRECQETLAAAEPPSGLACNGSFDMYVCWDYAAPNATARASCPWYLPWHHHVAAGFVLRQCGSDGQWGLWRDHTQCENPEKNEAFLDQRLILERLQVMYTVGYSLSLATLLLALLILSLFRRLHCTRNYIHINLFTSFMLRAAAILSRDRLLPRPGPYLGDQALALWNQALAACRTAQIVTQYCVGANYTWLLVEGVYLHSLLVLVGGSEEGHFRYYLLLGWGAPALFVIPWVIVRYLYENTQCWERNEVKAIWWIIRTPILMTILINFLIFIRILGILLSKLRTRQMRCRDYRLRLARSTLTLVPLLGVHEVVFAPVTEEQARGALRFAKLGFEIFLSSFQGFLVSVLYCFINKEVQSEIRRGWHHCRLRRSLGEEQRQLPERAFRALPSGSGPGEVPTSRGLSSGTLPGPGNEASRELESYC
Method: as §1, §2

[4] = biological target: T3, human GLP-1R (Homo sapiens, UniProt P43220); test: cAMP assay (HitHunter cAMP) in GLP-1R-expressing CHO-K1 cells (GLP-1R+ cells); format: cell-based; settings: for Activity relative to STD peptide (%), GLP-1: Table 13, EC50 of STD peptide over EC50 of peptide; for Activity relative to GLP-1 (%), GLP-1: Table 14; for Activity relative to GLP-1 (%), GLP-1 / Activity relative to GLP-1 (%), GLP-1R: normalised to activity at GLP-1R; for Activity relative to STD peptide (%), GLP-1R: Table 18; for Activity relative to GLP-1 (%), GLP-1R: Table 19; for Relative % to native ligand, GLP-1R: Table 24, ratio of EC50 of native ligand over peptide; for Ratio vs. GLP-1R, GLP-1R: Table 25; for Relative % to non-lipidated peptide, GLP-1R: Table 26
T3 construct: host or cells: CHO-K1
Method: as §1, §2

T3 sequence (P43220 24-463): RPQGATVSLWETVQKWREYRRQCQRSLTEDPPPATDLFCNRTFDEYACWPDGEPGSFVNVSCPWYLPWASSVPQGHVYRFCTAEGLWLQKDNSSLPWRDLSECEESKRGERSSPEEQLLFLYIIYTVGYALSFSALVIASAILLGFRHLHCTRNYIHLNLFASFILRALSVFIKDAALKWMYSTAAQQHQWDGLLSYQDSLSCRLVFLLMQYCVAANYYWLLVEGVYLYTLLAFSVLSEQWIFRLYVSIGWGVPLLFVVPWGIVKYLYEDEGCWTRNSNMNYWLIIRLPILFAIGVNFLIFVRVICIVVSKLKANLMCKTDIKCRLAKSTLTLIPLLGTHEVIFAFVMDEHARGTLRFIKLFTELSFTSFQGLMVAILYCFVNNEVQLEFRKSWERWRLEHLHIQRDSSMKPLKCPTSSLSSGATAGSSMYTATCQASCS
T1 sequence (P47871 26-477): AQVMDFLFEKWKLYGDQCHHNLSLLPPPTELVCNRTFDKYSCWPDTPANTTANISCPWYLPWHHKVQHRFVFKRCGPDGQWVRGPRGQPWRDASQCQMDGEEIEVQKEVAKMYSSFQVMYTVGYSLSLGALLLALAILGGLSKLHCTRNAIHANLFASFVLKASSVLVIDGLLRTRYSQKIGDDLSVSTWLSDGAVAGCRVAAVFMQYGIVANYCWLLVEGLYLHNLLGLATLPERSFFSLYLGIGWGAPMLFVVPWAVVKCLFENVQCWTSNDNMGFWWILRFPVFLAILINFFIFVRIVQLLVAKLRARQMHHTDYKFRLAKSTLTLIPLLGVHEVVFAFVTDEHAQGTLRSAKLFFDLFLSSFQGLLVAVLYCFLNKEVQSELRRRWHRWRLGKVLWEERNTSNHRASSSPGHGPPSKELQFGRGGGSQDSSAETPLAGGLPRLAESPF

Row | SMILES | Activity relative to STD peptide (%), Glucagon [1] [%] | Activity relative to GLP-1 (%), Glucagon [1] [%] | Activity relative to STD peptide (%), GCGR [1] [%] | Activity relative to GLP-1 (%), GCGR [1] [%] | Relative % to native ligand, GCGR [1] [%] | Ratio vs. GLP-1R, GCGR [1] | Relative % to non-lipidated peptide, GCGR [1] [%] | Weight loss (%) ([2]; 10 nmol/kg QD) | Weight loss (%) ([2]; 20 nmol/kg QD) | Activity relative to STD peptide (%), GIP [3] [%] | Activity relative to GLP-1 (%), GIP [3] [%] | Activity relative to STD peptide (%), GIPR [3] [%] | Activity relative to GLP-1 (%), GIPR [3] [%] | Relative % to native ligand, GIPR [3] [%] | Ratio vs. GLP-1R, GIPR [3] | Relative % to non-lipidated peptide, GIPR [3] [%] | Activity relative to STD peptide (%), GLP-1 [4] [%] | Activity relative to GLP-1 (%), GLP-1 [4] [%] | Activity relative to STD peptide (%), GLP-1R [4] [%] | Activity relative to GLP-1 (%), GLP-1R [4] [%] | other results
1 | CC[C@H](C)[C@H](NC(=O)[C@H](CC(C)C)NC(=O)[C@H](Cc1c[nH]c2ccccc12)NC(=O)[C@H](CCC(N)=O)NC(=O)[C@@H](NC(=O)[C@H](Cc1ccccc1)NC(=O)[C@H](CC(=O)O)NC(=O)[C@H](CCCNC(=N)N)NC(=O)[C@H](C)NC(=O)[C@H](CCSC)NC(=O)[C@H](CCSC)NC(=O)[C@H](Cc1ccc(O)cc1)NC(=O)[C@H](CC(=O)O)NC(=O)[C@H](CC(C)C)NC(=O)[C@H](Cc1ccc(O)cc1)NC(=O)[C@H](CCCCN)NC(=O)[C@H](CO)NC(=O)[C@H](Cc1ccc(O)cc1)NC(=O)[C@H](CC(=O)O)NC(=O)[C@H](CO)NC(=O)[C@@H](NC(=O)[C@H](Cc1ccccc1)NC(=O)[C@@H](NC(=O)CNC(=O)[C@H](CCC(N)=O)NC(=O)C(C)(C)NC(=O)[C@@H](N)Cc1c[nH]cn1)[C@@H](C)O)[C@@H](C)O)C(C)C)C(=O)N[C@@H](CCC(=O)O)C(=O)NCC(=O)NCC(=O)N1CCC[C@H]1C(=O)N[C@@H](CO)C(=O)N[C@@H](CO)C(=O)NCC(=O)N[C@@H](C)C(=O)N1CCC[C@H]1C(=O)N1CCC[C@H]1C(=O)N1CCC[C@H]1C(=O)N[C@@H](CO)C(=O)N[C@@H](CSC1CC(=O)N(CCNC(=O)COCCOCCNC(=O)COCCOCCNC(=O)CC[C@H](NC(=O)CCCCCCCCCCCCCCCCC(=O)O)C(=O)O)C1=O)C(N)=O (some centres unmarked) [5A] | 8 | 10 | 8 | 2 | 14 | 7 | 2 | 15.7 ± 2.2 | 20.1 ± 1.3% and 18.8 ± 0.9% and 19.3 ± 1.9% and 22.9 ± 1.5% | 1 | 2 | 0 | 0 | 5 | 2 | 167 | 84 | 100 | 520 | 100 | Percentage change in EC50 relative to GCG at human GCGR (%) ([1]; Table 10, lipidated (A type) peptides): 14%; body weight loss (BWL), in words ([2]; Example 3, 20 nmol/kg QD or 30 nmol/kg Q2D s.c., 4 days): Superior body weight loss; body weight loss effect, in words ([2]; Example 5, 20 nmol/kg s.c. QD, 4 days): Superior body weight loss effects; Weight loss (%) ([2]; 30 nmol/kg Q2D): 14.6 ± 1.8%; Percentage change in EC50 relative to GIP at human GIPR (%) ([3]; Table 11, lipidated (A type) peptides): 5%; Percentage change in EC50 relative to GLP-1 at human GLP-1R (%) ([4]; Table 9, lipidated (A type) peptides): 201%; Relative % to native ligand, GLP-1R [4]: 201%; Ratio vs. GLP-1R, GLP-1R [4]: 100; Relative % to non-lipidated peptide, GLP-1R [4]: 33%
2 | CC[C@H](C)[C@H](NC(=O)[C@H](CC(C)C)NC(=O)[C@H](Cc1c[nH]c2ccccc12)NC(=O)[C@H](CCC(N)=O)NC(=O)[C@@H](NC(=O)[C@H](Cc1ccccc1)NC(=O)[C@H](CC(=O)O)NC(=O)[C@H](CCCNC(=N)N)NC(=O)[C@H](C)NC(=O)[C@H](CCSC)NC(=O)[C@H](CCSC)NC(=O)[C@H](Cc1ccc(O)cc1)NC(=O)[C@H](CC(=O)O)NC(=O)[C@H](CC(C)C)NC(=O)[C@H](Cc1ccc(O)cc1)NC(=O)[C@H](CCCCNC(=O)COCCOCCNC(=O)COCCOCCNC(=O)CC[C@H](NC(=O)CCCCCCCCCCCCCCCCC(=O)O)C(=O)O)NC(=O)[C@H](CO)NC(=O)[C@H](Cc1ccc(O)cc1)NC(=O)[C@H](CC(=O)O)NC(=O)[C@H](CO)NC(=O)[C@@H](NC(=O)[C@H](Cc1ccccc1)NC(=O)[C@@H](NC(=O)CNC(=O)[C@H](CCC(N)=O)NC(=O)C(C)(C)NC(=O)[C@@H](N)Cc1c[nH]cn1)[C@@H](C)O)[C@@H](C)O)C(C)C)C(=O)N[C@@H](CCC(=O)O)C(=O)NCC(=O)NCC(=O)N1CCC[C@H]1C(=O)N[C@@H](CO)C(=O)N[C@@H](CO)C(=O)NCC(=O)N[C@@H](C)C(=O)N1CCC[C@H]1C(=O)N1CCC[C@H]1C(=O)N1CCC[C@H]1C(=O)N[C@@H](CO)C(=O)N[C@@H](CSC1CC(=O)N(CCCCCC(=O)NNC(=O)CCCC[C@@H]2SC[C@@H]3NC(=O)N[C@@H]32)C1=O)C(N)=O (some centres unmarked) [5C, HAibQGT FTSDY SK*YLD YMMAR DFVQW LIEGG PSSGA PPPSB#] | 23 | 12 |  |  |  |  |  | 9.6 ± 1.0 | 14.1 ± 1.9% | 8 | 4 |  |  |  |  |  | 202 | 100 |  |  | 
3 | CSCC[C@H](NC(=O)[C@H](Cc1ccc(O)cc1)NC(=O)[C@H](CC(=O)O)NC(=O)[C@H](CC(C)C)NC(=O)[C@H](CC(C)C)NC(=O)[C@H](CCCCN)NC(=O)[C@H](CO)NC(=O)[C@H](Cc1ccc(O)cc1)NC(=O)[C@H](CC(=O)O)NC(=O)[C@H](CO)NC(=O)[C@@H](NC(=O)[C@H](Cc1ccccc1)NC(=O)[C@@H](NC(=O)CNC(=O)[C@H](CCC(N)=O)NC(=O)C(C)(C)NC(=O)[C@@H](N)Cc1c[nH]cn1)[C@@H](C)O)[C@@H](C)O)C(=O)N[C@@H](CCSC)C(=O)N[C@@H](CCC(N)=O)C(=O)N[C@@H](CCCNC(=N)N)C(=O)N[C@@H](CC(=O)O)C(=O)N[C@@H](Cc1ccccc1)C(=O)N[C@H](C(=O)N[C@@H](CCC(N)=O)C(=O)N[C@@H](Cc1c[nH]c2ccccc12)C(=O)N[C@@H](CC(C)C)C(=O)N[C@@H](CC(C)C)C(=O)N[C@@H](CCC(=O)O)C(=O)NCC(=O)NCC(=O)N1CCC[C@H]1C(=O)N[C@@H](CO)C(=O)N[C@@H](CO)C(=O)NCC(=O)N[C@@H](C)C(=O)N1CCC[C@H]1C(=O)N1CCC[C@H]1C(=O)N1CCC[C@H]1C(=O)N[C@@H](CO)C(=O)N[C@@H](CSC1CC(=O)N(CCNC(=O)COCCOCCNC(=O)COCCOCCNC(=O)CC[C@H](NC(=O)CCCCCCCCCCCCCCCCC(=O)O)C(=O)O)C1=O)C(N)=O)C(C)C (some centres unmarked) [5-5A] (H-H[Aib]QGTFTSDYSKLLDYMMQRDFVQWLLEGGPSSGAPPPSC(X1)-NH2; N-terminus assumed) |  |  | 1 | 0 | 1 | 0 | 1 |  | 10.6 ± 1.0% |  |  | 14 | 2 | 14 | 2 | 3 |  |  | 673 | 100 | Relative % to native ligand, GLP-1R [4]: 673%; Ratio vs. GLP-1R, GLP-1R [4]: 100; Relative % to non-lipidated peptide, GLP-1R [4]: 40%
